Literature values, collected in patent US20230293541A1, “METHODS OF TREATING OPHTHALMIC CONDITIONS WITH ENHANCED PENETRATION COMPOSITIONS OF BIMATOPROST AND TIMOLOL” (Somerset Therapeutics, LLC, priority 2022, published 2023).

Key:
[1] = patients starting on prostaglandin monotherapy
[2] = under certain conditions
[3] = three-month comparison, glaucoma and ocular hypertension
[4] = in comparison to latanoprost and travoprost

| SMILES | rate of adjunctive medication use [1] | API stability [2] | mean pressures (IOP) versus latanoprost [3] | corneal penetration [4] |
| --- | --- | --- | --- | --- |
| CC(C)OC(=O)CCC/C=C\C[C@@H]1[C@@H](CC[C@@H](O)CCc2ccccc2)[C@H](O)C[C@@H]1O [latanoprost] | 30.2% | experiencing degradation | – | – |
| CCNC(=O)CCC/C=C\C[C@@H]1[C@@H](/C=C/[C@@H](O)CCc2ccccc2)[C@H](O)C[C@@H]1O [bimatoprost, (Z)-7-[(1R, 2R, 3R, 5S)-3,5-Dihydroxy-2-[(1E, 3S)˜3-hydroxy-5-phenyl˜1-pentenyl]cyclopentyl]˜5-N-ethylheptenamid] | 23.2% | remain stable | lower mean pressures than latanoprost at every time point studied | poor corneal penetration |
| CC(C)OC(=O)CCC/C=C\C[C@@H]1[C@@H](/C=C/[C@@H](O)COc2cccc(C(F)(F)F)c2)[C@H](O)C[C@@H]1O [travoprost] | 22.5% | experiencing degradation | – | – |
